According to paper PMC6537893 (Biochemistry, 2019):

Target: T1, GoxA (Pseudoalteromonas luteoviolacea, UniProt A0A161XU12)
T1 sequence (A0A161XU12 1-816): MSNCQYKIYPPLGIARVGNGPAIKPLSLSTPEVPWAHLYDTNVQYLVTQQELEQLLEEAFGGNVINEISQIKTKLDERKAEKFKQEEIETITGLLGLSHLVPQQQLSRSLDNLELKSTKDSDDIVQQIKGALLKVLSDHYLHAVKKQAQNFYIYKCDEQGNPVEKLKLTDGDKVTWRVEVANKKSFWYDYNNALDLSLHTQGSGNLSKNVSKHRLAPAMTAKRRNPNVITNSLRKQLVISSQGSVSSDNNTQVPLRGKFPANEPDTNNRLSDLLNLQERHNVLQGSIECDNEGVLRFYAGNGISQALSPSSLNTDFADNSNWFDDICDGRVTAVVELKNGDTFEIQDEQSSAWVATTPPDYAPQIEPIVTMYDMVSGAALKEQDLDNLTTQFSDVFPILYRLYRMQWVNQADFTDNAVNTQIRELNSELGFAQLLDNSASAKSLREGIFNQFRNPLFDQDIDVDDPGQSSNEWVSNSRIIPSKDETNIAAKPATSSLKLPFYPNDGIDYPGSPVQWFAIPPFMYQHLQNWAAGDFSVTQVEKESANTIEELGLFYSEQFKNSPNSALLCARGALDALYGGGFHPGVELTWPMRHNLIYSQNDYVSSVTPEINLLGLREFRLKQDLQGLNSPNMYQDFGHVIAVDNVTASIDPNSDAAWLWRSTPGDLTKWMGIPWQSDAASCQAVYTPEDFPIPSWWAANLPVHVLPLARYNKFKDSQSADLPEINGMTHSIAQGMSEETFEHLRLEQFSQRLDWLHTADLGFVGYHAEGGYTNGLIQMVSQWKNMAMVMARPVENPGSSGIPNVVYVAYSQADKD
Assay: anaerobic absorbance titration at […] nm, fit to allosteric binding equation

Question: Which Kd does the source give for `NCC(=O)O` [glycine] here?
Answer: 103 ± 3 µM
